# US7045300B2, “Lectin protein prepared from Maackia fauriei, process for preparing the same and the use thereof” (priority 2001, dated 2006)
# B1: Fetuin: glycoprotein containing N-acetylneuraminic acid (protein, UniProt P12763 19-359, looked up)
# Alpha-2-HS-glycoprotein: IPLDPVAGYKEPACDDPDTEQAALAAVDYINKHLPRGYKHTLNQIDSVKVWPRRPTGEVYDIEIDTLETTCHVLDPTPLANCSVRQQTQHAVEGDCDIHVLKQDGQFSVLFTKCDSSPDSAEDVRKLCPDCPLLAPLNDSRVVHAVEVALATFNAESNGSYLQLVEISRAQFVPLPVSVSVEFAVAATDCIAKEVVDPTKCNLLAEKQYGFCKGSVIQKALGGEDVRVTCTLFQTQPVIPQPQPDGAEAEAPSAVPDAAGPTPSAAGPPVASVVVGPSVVAVPLPLHRAHYDLRHTFSGVASVESSSGEAFHVGKTPIVGQPSIPGGPVRLCPGRIRYFKI
# B2: Asialofetuin: glycoprotein tested as hemagglutination inhibitor (protein, UniProt P12763 19-359, looked up)
# Alpha-2-HS-glycoprotein: B1 Alpha-2-HS-glycoprotein
# modifications: desialylated
# Test system: lectin MFA
# Experiment: Hemagglutination-inhibition assay of the lectin MFA with monosaccharide, disaccharide and glycoprotein
# Format: biochemical, Maackia fauriei
# Set-up: key to Minimum erythrocyte agglutination inhibition concentration: —: The negative sign (−) means that there is no hemagglutination-inhibition
# Settings: 6.25% mouse erythrocyte; lectin MFA diluted 128-fold
# Experimental: In order to confirm that the lectin MFA of the present invention recognizes N-acetylneuraminic acid, hemagglutination-inhibition reaction was performed using monosaccharide, disaccharide and glycoprotein. 50 μl of a 128-fold diluted solution of lectin MFA in 0.15 M NaCl and 50 μl of each 1 mg/ml solution of monosaccharides (e.g., β-D-glucose, D-galactose, L-fucose, D-mannose, N-acetylneuraminic acid, N-glycolylneuraminic acid, N-acetyl-D-glucosamine, N-acetyl-D-galactosamine and methyl-α-D-glucopyranoside), disaccharide (e.g., α-lactose, β-lactose, D-lactose, β-gentiobiose, maltose, D-raffinose or D-cellobiose) and glycoprotein (e.g., fetuin and asialofetuin) in 0.15 M NaCl were added to the each well of a 96-well microplate. After the reaction for one hour or more at room temperature, 50 μl of the erythrocyte suspended in 0.15 M NaCl was added to each well and reacted for one hour at room temperature.
# The negative sign (−) means that there is no hemagglutination-inhibition. […] NeuGc and NeuAc represent N-glycolylneuraminic acid and N-acetylneuraminic acid, respectively.
row,Molecule,Minimum erythrocyte agglutination inhibition concentration [mM]
1,CC(=O)N[C@H]1[C@H]([C@H](O)[C@H](O)CO)OC(O)(C(=O)O)C[C@@H]1O (some centres unmarked) [N-acetylneuraminic acid],10.0
2,B1,0.0052

# Same assay, conditions: 6.25% mouse erythrocyte; lectin MFA diluted 128-fold; dash = no inhibition
row,Molecule,Minimum erythrocyte agglutination inhibition concentration
1,OC[C@H]1O[C@H](OC[C@H]2O[C@H](O[C@]3(CO)O[C@H](CO)[C@@H](O)[C@@H]3O)[C@H](O)[C@@H](O)[C@@H]2O)[C@H](O)[C@@H](O)[C@H]1O [D-raffinose],—
2,O=C[C@H](O)[C@@H](O)[C@@H](O)[C@H](O)CO [D-galactose],—
3,C[C@H](O)[C@@H](O)[C@@H](O)[C@H](O)C=O [L-fucose],—
4,CC(=O)N[C@H]1C(O)O[C@H](CO)[C@@H](O)[C@@H]1O (stereo partly drawn) [N-acetyl-D-glucosamine],—
5,OC[C@H]1O[C@@H](O[C@H]2[C@H](O)[C@@H](O)C(O)O[C@@H]2CO)[C@H](O)[C@@H](O)[C@H]1O (stereo partly drawn) [D-lactose],—
6,CC(=O)N[C@H]1C(O)O[C@H](CO)[C@H](O)[C@@H]1O (stereo partly drawn) [N-acetyl-D-galactosamine],—
7,OC[C@H]1O[C@@H](O[C@H]2[C@H](O)[C@@H](O)[C@H](O)O[C@@H]2CO)[C@H](O)[C@@H](O)[C@H]1O [β-lactose],—
8,CO[C@H]1O[C@H](CO)[C@@H](O)[C@H](O)[C@H]1O [Methyl-α-D-glucopyranoside],—
9,OC[C@H]1O[C@@H](O)[C@H](O)[C@@H](O)[C@@H]1O [β-D-glucose],—
10,O=C(CO)N[C@H]1[C@H]([C@H](O)[C@H](O)CO)OC(O)(C(=O)O)C[C@@H]1O (some centres unmarked) [N-glycolylneuraminic acid],—
11,OC[C@H]1O[C@H](O[C@H]2[C@H](O)[C@@H](O)[C@H](O)O[C@@H]2CO)[C@H](O)[C@@H](O)[C@@H]1O [Maltose],—
12,OC[C@H]1O[C@@H](OC[C@H]2O[C@@H](O)[C@H](O)[C@@H](O)[C@@H]2O)[C@H](O)[C@@H](O)[C@@H]1O [β-gentiobiose],—
13,OC[C@H]1O[C@@H](O[C@H]2[C@H](O)[C@@H](O)[C@@H](O)O[C@@H]2CO)[C@H](O)[C@@H](O)[C@H]1O [α-lactose],—
14,O=C[C@@H](O)[C@@H](O)[C@H](O)[C@H](O)CO [D-mannose],—
15,OC[C@H]1O[C@@H](O[C@H]2[C@H](O)[C@@H](O)[C@H](O)O[C@@H]2CO)[C@H](O)[C@@H](O)[C@@H]1O [D-cellobiose],—
16,B2,—

# Same assay, conditions: starting from 1 mg/ml solution of each carbohydrate; 128-fold diluted lectin MFA
row,Molecule,inhibition of agglutination
1,CC(=O)N[C@H]1[C@H]([C@H](O)[C@H](O)CO)OC(O)(C(=O)O)C[C@@H]1O (some centres unmarked) [N-acetylneuraminic acid],inhibited the agglutination
2,B1,inhibited the agglutination

# Test system: not listed separately
# Experiment: Comparison of binding specificity of lectins, hemagglutination inhibition by N-acetylneuraminic acid
# Format: biochemical
# Settings: 6.25% human B type erythrocyte; tested up to 10 mM
# Experimental: (§1) The binding specificity of the MFA with Wheat germ agglutinin, Maackia amurensis aggulutinin, Limulus polyphemus lectin, and Sambucus niger agglutinin which have already been reported to recognize N-acetylneuraminic acid was determined by a hemagglutination inhibition response using 10 mM of N-acetylneuraminic acid and N-acetylneuraminic acid-binding fetuin.
# (§2) The negative sign (−) means no hemagglutination inhibition up to 10 mM
row,Molecule,"Minimum hemagglutination-inhibition concentration, N-acetylneuraminic acid"
1,Wheat germ agglutinin,— (The negative sign (−) means no hemagglutination inhibition up to 10 mM)

# Test system: fetuin
# Experiment: Comparison of binding specificity of lectins, hemagglutination inhibition by fetuin
# Format: biochemical
# Settings: 6.25% human B type erythrocyte
# Experimental: as §1, §2
row,Molecule,"Minimum hemagglutination-inhibition concentration, Fetuin [µM]"
1,Wheat germ agglutinin,207

# Test system: lectin MFA
# Experiment: Hemagglutination-inhibition assay of the lectin MFA with monosaccharide, disaccharide and glycoprotein
# Format: biochemical, Maackia fauriei
# Settings: at 10 mM
row,Molecule,hemagglutination inhibition
1,CC(=O)N[C@H]1C(O)O[C@H](CO)[C@@H](O[C@@H]2O[C@H](CO)[C@H](O)[C@H](O)[C@H]2O)[C@@H]1O (some centres unmarked) [N-acetylactosamine],did not show hemagglutination inhibition
